# Laboratory results: patent US20230227411A1, “Benzimidazole Derivatives” (Hoffmann-La Roche Inc., priority 2020, published 2023)
# Target: T1, human cGAS (residues 161-522) (Homo sapiens, UniProt Q8N884)
# T1 construct: Recombinantly expressed purified human cGAS (residues 161-522) was used at 25 nM; made in house
# Experiment: Malachite Green assay to measure cGAS activity
# Type: biochemical
# Conditions: coupled enzymatic assay, phosphate detection by Malachite Green; 25 nM cGAS, 80 μM ATP, 80 μM GTP, 100 nM ISD, 4 hour at RT
# Procedure: Malachite Green Assay to Measure cGAS Activity
# Compounds were tested for cGAS inhibition in a coupled enzymatic assay based on Phosphate detection by Malachite Green. Final assay conditions were 20 mM TRIS pH 7.5 (Applichem), 5 mM MgCl2 (Sigma) and 0.01% BSA (Sigma) supplemented with 80 μM ATP (Sigma), 80 μM GTP (Sigma) and 100 nM Interferon Stimulating DNA (ISD) (Microsynth). Recombinantly expressed purified human cGAS (residues 161-522) was used at 25 nM.
# All compounds were prepared as 10 mM stock solutions in DMSO and a 16 pt dilution series in DMSO with a dilution factor of 2.5 was prepared. 1 μL of DMSO dilution series was transferred to 32.3 μL reaction buffer, mixed by pipetting up/down, spun for 1 minute at 3000 rpm and was visually inspected for precipitation. 5 μL of 3-fold enzyme stock solution were transferred to an empty 384-well Black/Clear Flat Bottom Polystyrene NBS (Corning) rows 3-24. Rows 1-2 were filled with assay buffer. Plates were spun 10 seconds at 1000 rpm (164×g). 5 μL of compound intermediate dilution was added and mixed by pipetting up/down to rows 3-24. Rows 1-2 were filled with 3.1% DMSO assay buffer. Plates were spun 10 seconds at 1000 rpm (164×g). 5 μL 3-fold Nucleotide/DNA mix was added to all wells to start the reaction. Plates were spun 10 seconds at 1000 rpm (164×g) and incubated for 4 hour at room temperature (RT) in the dark. 5 μL 4 U/mL PPase (Sigma) were added to all wells. Plates spun 10 seconds at 1000 rpm (164×g). 10 μL BioMol green Solution (Enzo Life Sciences) was added to all wells. Plates spun 10 seconds at 1000 rpm (164×g) and incubated 30 minutes at RT in the dark. Absorbance data was collected 620 nm on an EnVision Multilable Reader (Perkin Elmer) and the following measurement settings were used: excitation filter photometric was 620 nm; excitation from the top; measurement height was 1 mm; number of flashes was 30; number of flashes integrated was 1.
# All plates are checked for abnormalities and outliers in the Blank Control (no protein, row 1) and the Neutral Control (no compound, row 2) are excluded using the 3*SD rule. Data was normalized to 0 and 100% by Blank and Neutral Control and each curve was fitted and judged using the 4 parameter logistic equation to determine the IC50 for cGAS inhibition.
# Table 1 provides IC50 values (μM) for cGAS inhibition obtained for particular examples of the present invention as measured by the above-described assay.
# T1 sequence (Q8N884 161-522): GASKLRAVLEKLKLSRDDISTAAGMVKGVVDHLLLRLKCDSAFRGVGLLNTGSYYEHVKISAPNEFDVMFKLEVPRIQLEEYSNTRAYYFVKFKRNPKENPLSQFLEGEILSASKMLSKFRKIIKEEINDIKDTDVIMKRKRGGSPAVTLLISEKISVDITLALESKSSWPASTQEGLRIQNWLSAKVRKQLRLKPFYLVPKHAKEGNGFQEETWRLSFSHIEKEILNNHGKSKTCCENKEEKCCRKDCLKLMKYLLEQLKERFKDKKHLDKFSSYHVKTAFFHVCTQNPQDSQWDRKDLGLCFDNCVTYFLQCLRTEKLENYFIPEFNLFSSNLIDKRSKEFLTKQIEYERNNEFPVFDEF
row,Compound,IC50
1,"Cc1ccc(-c2cc(C(=O)O)c3c(c2)ncn3CCN(C)C)c(Cl)c1 [Example 8, 5-(2-Chloro-4-methylphenyl)-1-(2-(dimethylamino)ethyl)-1H-benzo[d]imidazole-7-carboxylic acid]",2020 nM
2,"Cc1ccc(-c2cc(C(=O)O)c3c(c2)ncn3CCCNS(C)(=O)=O)c(Cl)c1 [Example 3, 5-(2-Chloro-4-methylphenyl)-1-(3-(methylsulfonamido)propyl)-1H-benzo[d]imidazole-7-carboxylic acid]",1340 nM
3,"CC(=O)NCCCn1cnc2cc(-c3ccc(C)cc3Cl)cc(C(=O)O)c21 [Example 2, 1-(3-Acetamidopropyl)-5-(2-chloro-4-methylphenyl)-1H-benzo[d]imidazole-7-carboxylic acid]",2340 nM
4,"CCn1cnc2cc(-c3cc(F)c(C)cc3Cl)cc(C(=O)O)c21 [Example 11, 5-(2-Chloro-5-fluoro-4-methylphenyl)-1-ethyl-1H-benzo[d]imidazole-7-carboxylic acid]",1930 nM
5,"COCCn1cnc2cc(-c3ccc(C)cc3Cl)cc(C(=O)O)c21 [Example 9, 5-(2-Chloro-4-methylphenyl)-1-(2-methoxyethyl)-1H-benzo[d]imidazole-7-carboxylic acid]",3040 nM
6,"Cc1ccc(-c2cc(C(=O)O)c3c(c2)ncn3CC(F)(F)F)c(Cl)c1 [Example 13, 5-(2-Chloro-4-methylphenyl)-1-(2,2,2-trifluoroethyl)-1H-benzo[d]imidazole-7-carboxylic acid]",3290 nM

# Continued, values first:
row,IC50,Compound
1,2810 nM,"CCn1cnc2cc(-c3ccc(C)cc3Cl)cc(C(=O)O)c21 [Example 12, 5-(2-Chloro-4-methylphenyl)-1-ethyl-1H-benzo[d]imidazole-7-carboxylic acid]"
2,2410 nM,"Cc1ccc(-c2cc(C(=O)O)c3c(c2)ncn3Cc2ccccc2)c(Cl)c1 [Example 15, 1-Benzyl-5-(2-chloro-4-methylphenyl)-1H-benzo[d]imidazole-7-carboxylic acid]"
3,2070 nM,"Cc1ccc(-c2cc(C(=O)O)c3c(c2)ncn3Cc2cccnc2)c(Cl)c1 [Example 6, 5-(2-Chloro-4-methylphenyl)-1-(pyridin-3-ylmethyl)-1H-benzo[d]imidazole-7-carboxylic acid]"
4,1860 nM,"Cc1ccc(-c2cc(C(=O)O)c3c(c2)ncn3CCc2ccccc2)c(Cl)c1 [Example 14, 5-(2-Chloro-4-methylphenyl)-1-phenethyl-1H-benzo[d]imidazole-7-carboxylic acid]"
5,870 nM,"Cc1ccc(-c2cc(C(=O)O)c3c(c2)ncn3Cc2ccncc2)c(Cl)c1 [Example 5, 5-(2-Chloro-4-methylphenyl)-1-(pyridin-4-ylmethyl)-1H-benzo[d]imidazole-7-carboxylic acid]"
6,2590 nM,"Cc1ccc(-c2cc(C(=O)O)c3c(c2)ncn3Cc2cccc(Cl)c2)c(Cl)c1 [Example 4, 5-(2-Chloro-4-methylphenyl)-1-(3-chlorobenzyl)-1H-benzo[d]imidazole-7-carboxylic acid]"
7,4790 nM,"Cc1ccc(-c2cc(C(=O)O)c3c(c2)ncn3C2CC2)c(Cl)c1 [Example 10, 5-(2-Chloro-4-methylphenyl)-1-cyclopropyl-1H-benzo[d]imidazole-7-carboxylic acid]"
8,1120 nM,"Cc1ccc(-c2cc(C(=O)O)c3c(c2)ncn3-c2ccccc2)c(Cl)c1 [Example 1, 5-(2-Chloro-4-methylphenyl)-1-phenyl-1H-benzo[d]imidazole-7-carboxylic acid]"
9,1760 nM,"Cc1ccc(-c2cc(C(=O)O)c3c(c2)ncn3Cc2ccccn2)c(Cl)c1 [Example 7, 6-(2-Chloro-4-methylphenyl)-3-(pyridin-2-ylmethyl)benzimidazole-4-carboxylic acid]"
